Results: ChEMBL document CHEMBL1201862, “PubChem BioAssay data set” (2004)
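Where inhibition never reached the appropriate level, the endpoint shown equals the highest concentration tested. Otherwise, values were interpolated linearly from a five-concentration, 48-hour dose response in 96-well plates. GI50 is the concentration that inhibits growth by half.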 Activity calls are given as the source filed them. No stated cut-off is given here; in the data, active = GI50 up to about 1.1 µM and inactive = higher.

Columns and labels:
Assay in all cases: NCI tumour cell line growth inhibition, 48 h
[1] = test system: COLO 205
[2] = test system: HOP-62
[3] = test system: HOP-92
[4] = test system: Hs-578T
[5] = test system: KM12
[6] = test system: M14
[7] = test system: NCI-H522
[8] = test system: OVCAR-3
[9] = test system: OVCAR-8
[10] = test system: PC-3
[11] = test system: SF-539
[12] = test system: SK-MEL-2
[13] = test system: SNB-19
[14] = test system: SNB-75
[15] = test system: SR
[16] = test system: U-251
[17] = test system: UACC-62
[18] = test system: NCI-H460
[19] = test system: CCRF-CEM
[20] = test system: HL-60

Measured: GI50

Clc1ccc(CN2CCCN(Cc3ccc(Cl)cc3)C2c2cc3ccccc3c3ccccc23)cc1
inactive: [1] 19.7 µM | [2] > 100 µM | [3] 74 µM | [4] 24.4 µM | [5] 60.3 µM | [6] 18.7 µM | [7] 18.9 µM | [8] 57.9 µM | [9] > 100 µM | [10] 24.3 µM | [11] 62.2 µM | [12] 25.5 µM | [13] > 100 µM | [14] 22.4 µM | [15] 3.21 µM | [16] 33.3 µM | [17] 18.7 µM

N=C(N)SCc1cccc(-c2nc3ccccc3c(=O)o2)c1
inactive: [1] > 100 µM | [2] > 100 µM | [3] > 100 µM | [4] > 100 µM | [5] > 100 µM | [6] > 100 µM | [18] > 100 µM | [7] > 100 µM | [8] > 100 µM | [9] > 100 µM | [10] > 100 µM | [11] > 100 µM | [12] > 100 µM | [13] > 100 µM | [14] > 100 µM | [15] 95.5 µM | [16] > 100 µM | [17] > 100 µM

COc1nc(N)c(NC2OC(CO)C(O)C2O)c(=O)[nH]1 (centres undefined)
inactive: [19] > 100 µM | [1] > 100 µM | [20] > 100 µM | [2] > 100 µM | [3] > 100 µM | [4] > 100 µM | [5] > 100 µM | [6] > 100 µM | [18] > 100 µM | [8] > 100 µM | [9] > 100 µM | [10] > 100 µM | [11] > 100 µM | [12] > 100 µM | [13] > 100 µM | [14] > 100 µM | [15] > 100 µM | [16] > 100 µM | [17] > 100 µM

CC1=NN(C(=O)CSc2nnc(SCC(=O)N3N=C(C)CC3(O)c3ccccc3)s2)C(O)(c2ccccc2)C1 (centres undefined)
inactive: [19] 18.7 µM | [1] 32.1 µM | [2] 51.3 µM | [3] 33.7 µM | [4] 36.3 µM | [5] 26.7 µM | [6] 16.1 µM | [18] 27.6 µM | [7] 29.6 µM | [8] 41.1 µM | [9] 26.9 µM | [10] 34.5 µM | [12] 29.2 µM | [13] 60.4 µM | [15] 23.3 µM | [16] > 100 µM | [17] 18.6 µM

COc1cc(S(=O)(=O)Nc2ccc(-c3csc(/N=C\c4cccs4)n3)cc2)ccc1Cl
inactive: [19] 19.8 µM | [1] 32.5 µM | [2] 67 µM | [3] > 100 µM | [4] 68.2 µM | [6] 61.8 µM | [18] 53 µM | [7] 32.4 µM | [8] 54.6 µM | [9] 87.5 µM | [10] > 100 µM | [11] 39.7 µM | [12] 96.6 µM | [13] 32.6 µM | [14] 30.3 µM | [15] 15.7 µM | [17] 23.3 µM

CCOC(=O)C12C(=O)CCN1CCc1ccccc1C2C (centres undefined)
inactive: [1] > 100 µM | [20] > 100 µM | [2] > 100 µM | [3] > 100 µM | [4] > 100 µM | [5] > 100 µM | [6] > 100 µM | [7] > 100 µM | [8] > 100 µM | [9] > 100 µM | [10] > 100 µM | [11] > 100 µM | [12] > 100 µM | [13] > 100 µM | [15] > 100 µM | [16] > 100 µM | [17] > 100 µM

Cc1c2n(c3ccccc13)S(=O)(=O)c1ccccc1-2
inactive: [19] > 100 µM | [1] > 100 µM | [20] > 100 µM | [3] 30.2 µM | [4] 18.7 µM | [5] > 100 µM | [6] 27.4 µM | [18] 30.5 µM | [7] 34.2 µM | [8] 45.9 µM | [9] 21.2 µM | [10] 22.5 µM | [13] 19.8 µM | [15] > 100 µM | [16] 18.4 µM | [17] 28.1 µM

COc1ccc2c3c1OC1c4[nH]c5ccccc5c4CC4(O)C(C2)N(C)CCC314 (centres undefined)
inactive: [19] 24.2 µM | [1] 18.4 µM | [2] 40.3 µM | [3] 14.3 µM | [4] 21.3 µM | [5] 30.3 µM | [6] 17.1 µM | [18] 22 µM | [7] 25.1 µM | [8] 42.3 µM | [9] 66.4 µM | [10] 37.2 µM | [12] 18.4 µM | [13] 32.4 µM | [14] 29.3 µM | [15] 15.2 µM | [16] 21 µM | [17] 20.9 µM
